Assay results from PubChem BioAssay AID1626 (SRMLSC, 2009).

System: M. tuberculosis H37Rv growth inhibition
Experiment: M. tuberculosis H37Rv growth inhibitors, H37Rv strain (AID 1626)
Conditions: for IC90: measured here: IC90 against H37Rv; for CC50: measured here: Vero cell cytotoxicity

SMILES	IC50 [µM]	IC90 [µM]	CC50 [µM]
O=C(N[C@H](CO)[C@H](O)c1ccc([N+](=O)[O-])cc1)C(Cl)Cl	4.82	7.7	> 40
N=C1SCC(=O)N1c1ncc(Cc2ccc(F)cc2)s1	< 0.195	> 100	> 40
Cc1ccn2c(NC3CCCC3)c(-c3ccccn3)nc2c1	3.19	5.24	8.93
CCOC(=O)c1sc(NC(=O)CNCc2ccccn2)c(C(=O)OCC)c1C	2.77	4.22	> 40
CCOC(=O)c1c(-c2ccccc2)csc1NC(=O)c1cc2ccccc2oc1=O	< 0.195	0.623	> 40
CN(C)c1ccc(/C=C/C=C2/C(=O)NC(=O)N(c3ccccc3)C2=O)cc1	2.5	4.66	> 40
c1ccc(CN2CCN(c3nc(-c4ccccc4)nc(-n4ccnc4)n3)CC2)cc1	1.5	2.2	> 40
CCCCCCCCn1c2c(c(=N)c3ccccc31)CCC2	6.24	9.17	9.55
COc1ccc(NCc2nc3ccccc3n2CCOc2ccc(C)cc2)cc1	17.8	26.2	26.2
COc1cc(CN2CCCC(C(=O)c3ccccc3SC)C2)cc(OC)c1 (stereo not drawn)	22.7	25.9	> 40
Cc1ccc([N+](=O)[O-])cc1NC(=O)CN(C(=O)c1ccccc1Cl)C1CCCCC1	3.22	5.22	–
CCN1CCN(Cc2ccc(NC(=O)c3ccc(C)c(NC(=O)C(=O)c4c[nH]c5ccccc45)c3)cc2C(F)(F)F)CC1	4.32	5.57	6.73
O=Cc1ccc(O)c2ncccc12	0.378	0.549	7.88
CN1CCN(CCCNC(=O)c2ccc(/C=C3\Sc4ccccc4N(Cc4ccc(F)cc4)C3=O)cc2)CC1	6.38	11.3	12.5
O=C(Nc1nc2c(F)cc(F)cc2s1)c1ccccn1	0.34	1.49	3.89
C=CCOC(=O)C(C#N)c1nc2ccccc2nc1N1CCN(Cc2ccc3c(c2)OCO3)CC1 (stereo not drawn)	5.44	6.17	> 40
CCOC(=O)CNC(=O)CSc1nc(-c2ccccc2)ns1	1.48	3.2	–
COC(=O)c1c(NC(=O)c2ccccc2)sc(C(=O)c2ccccc2)c1C	9.53	25.6	25.3
CCn1c(CNc2ccc(F)cc2)nnc1SCC(=O)OC1CCCCC1	12	13.7	–
CC(C)Cc1cc(C(=O)Nc2cc(Br)ccc2O)no1	3.9	> 100	26.5
CCOC(=O)c1cnc2ccc(OCC)cc2c1NCc1ccccc1	15.7	22.2	> 40

SMILES	IC50 [µM]	IC90 [µM]	CC50 [µM]
Cc1ncn(-c2ccc(C(=O)Oc3ccccc3)cn2)n1	12.3	> 100	35.3
CCOC(=O)CSc1ncc(-c2cccc(Cl)c2)cn1	1.35	3.11	–
Cc1cc(Nc2ccccc2)n(-c2nc3ccccc3[nH]2)n1	< 0.195	3.18	> 40
Cc1cc(=O)[nH]c(SCC(=O)C23CC4CC(CC(C4)C2)C3)c1C#N	–	> 100	21.2
COc1ccc(N2CCN(Cc3nc(N)nc(Nc4ccc(C)c(Cl)c4)n3)CC2)cc1	0.546	1.71	> 40
O=c1c(O)c(-c2cccs2)oc2ccc(Cl)cc12	9.53	> 100	> 40
c1ccc2c(Nc3ccc4c(c3)OCCO4)c3c(nc2c1)CCCC3	11.3	29.1	> 40
COc1cccc(C(=O)/C=C/c2ccc(N3CCCCC3)c([N+](=O)[O-])c2)c1	29.4	> 100	27.2
Cc1nc2ccc(NC(=O)COc3cccc(F)c3)cc2s1	20.6	> 100	–
c1ccc2c(-c3nc(C4CCCCC4)no3)cc(-c3ccncc3)nc2c1	7	10.9	> 40
O=C(Nc1ccc(-c2nc3ccccc3c(=O)o2)cc1)c1ccco1	< 0.195	> 100	–
O=c1nc2c(O)cccn2c2c1c(=O)[nH]c1ccccc12	6.69	12.4	–
CCCCOC(=O)c1ccc(NC(=O)C(=O)NCCN(CC)CC)cc1	35.7	> 100	–
Cc1ccc2nc(-c3cccc(N)c3)oc2c1	12.7	> 100	> 40
COc1cc(/C=C/C(=O)c2ccc(F)cc2)cc(OC)c1OC	4.93	7.36	21.1
CN(C)c1ccc(O)c2c1CC1CC3C(N(C)C)C(=O)C(C(N)=O)=C(O)[C@@]3(O)C(=O)C1=C2O (stereo partly drawn)	3.33	7.59	> 40
O=C(/C=C/c1ccccc1)/C=C/c1ccccc1	5.86	6.68	31.2
CCOc1ccc(-c2nnc(N)o2)cc1	57.8	> 100	–
Cc1nc2ccccc2n1/N=C/c1ccc([N+](=O)[O-])s1	< 0.195	< 0.195	5.49
COC(=O)COc1cccc(NC(=O)COc2ccccc2)c1	2.72	4	–
COc1ccc(NC(=O)c2ccc(OC(F)F)cc2)cc1Cl	20.7	> 100	–

SMILES	IC50 [µM]	IC90 [µM]	CC50 [µM]
COc1ccc(N=C2CCS(=O)(=O)c3sccc32)cc1	54.3	> 100	–
O=C(CSc1nccc(=O)[nH]1)Nc1ccc(Br)c(Cl)c1	40.6	> 100	–
CCOc1ccc(CN(C)C(=O)CCl)cc1	26.7	> 100	12.7
C/C=C/c1ccc(OCC(=O)OCc2csc(Nc3ccc(C)cc3)n2)c(OC)c1	3.83	8.62	–
CCOC(=O)CSc1ccc(-c2nc3ccccc3[nH]2)cn1	2.98	5.54	> 40
Cc1ccc(-c2nnc(SCC#CCOC(=O)c3ccco3)o2)cc1	< 0.391	3.43	–
Cc1ccc(NC(=O)C2CCCCC2C(=O)O)cc1Cl (stereo not drawn)	–	> 100	–
O=C(/C=C/c1ccccc1)CC(=O)c1ccccc1O	23.7	> 100	> 40
Cc1cc2ncn(/N=C/c3ccc([N+](=O)[O-])s3)c2cc1C	< 0.195	0.282	8.74
CC(NC(=O)Nc1ccc(Br)cc1)C(C)(C)C (stereo not drawn)	0.42	> 100	–
CCCCc1ccc(NC(=O)c2cnccn2)cc1	52.1	> 100	> 40
Nc1ccc2cc(Br)ccc2c1	0.632	> 100	–
CCOc1ccc(OCC)c(NC(=O)CN2CCN(c3cc(C)ccc3C)CC2)c1	–	> 100	> 40
c1ccc(-c2nc(NCC3CCCO3)c3ccccc3n2)nc1 (stereo not drawn)	3.11	3.21	> 40
O=C(Nc1nnc(SCc2ccc(F)cc2)s1)c1ccccn1	0.342	5.05	4.74
COC(=O)C(Oc1ccc2c(-c3ccc(OC)cc3)cc(=O)oc2c1)c1ccccc1 (stereo not drawn)	15.4	20.9	–
Cn1cc(CN2CCN(c3ccc(Cl)cn3)CC2)c(-c2ccccc2F)n1	–	> 100	–
CCN1CCN(c2cc(C(C)(C)C)nc3c(-c4ccccc4)c(C)nn23)CC1	3.6	5.63	30.6
Cc1nc(NC(=O)c2ccccc2)sc1Cc1ccc2c(c1)OCO2	60.5	> 100	> 40
CCN(CC)c1ccc(N=Cc2ccc([N+](=O)[O-])o2)cc1	8.8	45.6	> 40
Cc1ccc(N2C(=O)C(F)(F)C2c2ccccc2)cc1 (stereo not drawn)	4.38	19.7	–

SMILES	IC50 [µM]	IC90 [µM]	CC50 [µM]
CC(C)c1c(O)nc(SCC(=O)Nc2ccc3c(c2)CCC3)[nH]c1=O	32.8	> 100	–
COc1ccc(NC(=O)CCCSc2ccccc2)cc1	–	> 100	–
COC(=O)CSc1nc2c(c(-c3ccc(C)o3)c1C#N)CCCC2	2.66	3.47	–
Nc1ccc2oc(-c3cc(Br)ccc3Cl)nc2c1	18.6	> 100	–
CCCc1ccc(-c2cc(C(=O)NC3=NCCS3)c3ccccc3n2)cc1	–	> 100	> 40
Cc1ccc(C)c(/C=C/C(=O)c2ccccc(=O)c2O)c1	–	–	4.93
CCCCCCCn1c(=O)c(C(=O)Nc2cnccn2)c(O)c2ccccc21	< 0.195	< 0.195	2.37
CCOc1ccc(NC(=O)NC23CC4CC(CC(C4)C2)C3)cc1	2.58	> 100	–
CCCSc1cc(N2CCN(C)CC2)nc(-c2ccc(OC)cc2)n1	10.9	12.2	> 40
N#CC(C#N)=c1ccc2c(c1)N1C(c3ccccc3)=CC(c3ccccc3)C3CCCCC31N=2 (stereo not drawn)	28.3	> 100	–
CCc1cccc2c(C(=O)COC(=O)c3ccc([N+](=O)[O-])s3)c[nH]c12	< 0.195	0.99	> 40
O=C1c2cccc3c([N+](=O)[O-])ccc(c23)C(=O)N1CC1CCCO1 (stereo not drawn)	3.76	12.5	18.1
COc1cnc(-c2ccccn2)nc1Oc1c(C)cccc1C	5.19	14.7	19.8
COc1cc(OC)c2c(-c3ccccc3)cc(=O)oc2c1C(CCN1CCCC(C)C1)c1ccc2c(c1)OCO2 (stereo not drawn)	5.64	10.4	24.3
CCOC(=O)COc1cc2c3c(c(=O)oc2cc1C)CCCC3	1.59	10.4	–
COc1ccc(N2C(=O)C(F)(F)C2c2ccccc2F)cc1 (stereo not drawn)	5.79	12.1	–
CSc1ccc(NC(=O)N2CC=C(n3c(=O)[nH]c4ccccc43)CC2)cc1	–	–	> 40
Cc1ccc(NC(=O)NC2CCCCC2)cc1Cl	6.04	> 100	> 40
COc1ccc(NC(C)c2cc(Cl)ccc2O)cc1 (stereo not drawn)	–	> 100	–
Cc1ccc(-n2cc(CN(C)Cc3ncc[nH]3)c(-c3cccc(C)c3)n2)cc1	10.3	13.5	> 40
